Results reported in patent US8192962B2, “Processes for detecting toxic substances” (Daikin Industries, Ltd., priority 2001, dated 2012).

Tested on: Mitochondria-located protein genes
Assay: DNA chip mRNA expression in yeast, mitochondria-located protein genes (Table 2)
Type: cell-based, Saccharomyces cerevisiae S288C
Conditions: cells incubated two hours with the chemical substance
Outline: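 Untreated cultures served as reference for log-phase S288C yeast given a growth-inhibiting, non-lethal toxicant dose for 2 h at 25° C. in YPD. Gene expression was measured on a whole-genome DNA chip from Cy3/Cy5-labeled cDNA.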

Oc1cc(Cl)c(Cl)cc1Cl [(6), 2,4,5-trichlorophenol]
The level of expressed mRNA in the presence of chemical substance/The level of expressed mRNA in the absence of chemical substance (yeast gene YJR121W): 1.5
The level of expressed mRNA in the presence of chemical substance/The level of expressed mRNA in the absence of chemical substance (yeast gene YKL003C): 1.0
The level of expressed mRNA in the presence of chemical substance/The level of expressed mRNA in the absence of chemical substance (yeast gene YKL016C): 0.8
The level of expressed mRNA in the presence of chemical substance/The level of expressed mRNA in the absence of chemical substance (yeast gene YKL141W): 1.2
The level of expressed mRNA in the presence of chemical substance/The level of expressed mRNA in the absence of chemical substance (yeast gene YKL142W): 3.4
The level of expressed mRNA in the presence of chemical substance/The level of expressed mRNA in the absence of chemical substance (yeast gene YKL148C): 0.5
The level of expressed mRNA in the presence of chemical substance/The level of expressed mRNA in the absence of chemical substance (yeast gene YKL170W): 1.5
The level of expressed mRNA in the presence of chemical substance/The level of expressed mRNA in the absence of chemical substance (yeast gene YKL194C): 1.4
The level of expressed mRNA in the presence of chemical substance/The level of expressed mRNA in the absence of chemical substance (yeast gene YKR066C): 0.9
The level of expressed mRNA in the presence of chemical substance/The level of expressed mRNA in the absence of chemical substance (yeast gene YLL041C): 1.2
The level of expressed mRNA in the presence of chemical substance/The level of expressed mRNA in the absence of chemical substance (yeast gene YLR038C): 1.2
The level of expressed mRNA in the presence of chemical substance/The level of expressed mRNA in the absence of chemical substance (yeast gene YLR259C): 0.9
The level of expressed mRNA in the presence of chemical substance/The level of expressed mRNA in the absence of chemical substance (yeast gene YLR295C): 1.1
The level of expressed mRNA in the presence of chemical substance/The level of expressed mRNA in the absence of chemical substance (yeast gene YLR304C): 1.9
The level of expressed mRNA in the presence of chemical substance/The level of expressed mRNA in the absence of chemical substance (yeast gene YLR348C): 1.9
The level of expressed mRNA in the presence of chemical substance/The level of expressed mRNA in the absence of chemical substance (yeast gene YLR395C): 0.4
The level of expressed mRNA in the presence of chemical substance/The level of expressed mRNA in the absence of chemical substance (yeast gene YML054C): 1.8
The level of expressed mRNA in the presence of chemical substance/The level of expressed mRNA in the absence of chemical substance (yeast gene YML120C): 0.6
The level of expressed mRNA in the presence of chemical substance/The level of expressed mRNA in the absence of chemical substance (yeast gene YML129C): 1.7
The level of expressed mRNA in the presence of chemical substance/The level of expressed mRNA in the absence of chemical substance (yeast gene YMR023C): 1.1
The level of expressed mRNA in the presence of chemical substance/The level of expressed mRNA in the absence of chemical substance (yeast gene YMR035W): 1.5
The level of expressed mRNA in the presence of chemical substance/The level of expressed mRNA in the absence of chemical substance (yeast gene YMR083W): 1.8
The level of expressed mRNA in the presence of chemical substance/The level of expressed mRNA in the absence of chemical substance (yeast gene YMR089C): 1.2
The level of expressed mRNA in the presence of chemical substance/The level of expressed mRNA in the absence of chemical substance (yeast gene YMR152W): 7.5
The level of expressed mRNA in the presence of chemical substance/The level of expressed mRNA in the absence of chemical substance (yeast gene YMR203W): 1.1
The level of expressed mRNA in the presence of chemical substance/The level of expressed mRNA in the absence of chemical substance (yeast gene YMR267W): 1.4
The level of expressed mRNA in the presence of chemical substance/The level of expressed mRNA in the absence of chemical substance (yeast gene YNL055C): 2.6
The level of expressed mRNA in the presence of chemical substance/The level of expressed mRNA in the absence of chemical substance (yeast gene YNL071W): 1.3
The level of expressed mRNA in the presence of chemical substance/The level of expressed mRNA in the absence of chemical substance (yeast gene YNL073W): 0.5
The level of expressed mRNA in the presence of chemical substance/The level of expressed mRNA in the absence of chemical substance (yeast gene YNL104C): 0.8
The level of expressed mRNA in the presence of chemical substance/The level of expressed mRNA in the absence of chemical substance (yeast gene YNL256W): 0.5
The level of expressed mRNA in the presence of chemical substance/The level of expressed mRNA in the absence of chemical substance (yeast gene YOL096C): 1.3
The level of expressed mRNA in the presence of chemical substance/The level of expressed mRNA in the absence of chemical substance (yeast gene YOR020C): 2.3
The level of expressed mRNA in the presence of chemical substance/The level of expressed mRNA in the absence of chemical substance (yeast gene YOR037W): 1.6
The level of expressed mRNA in the presence of chemical substance/The level of expressed mRNA in the absence of chemical substance (yeast gene YOR100C): 1.2
The level of expressed mRNA in the presence of chemical substance/The level of expressed mRNA in the absence of chemical substance (yeast gene YOR130C): 1.6
The level of expressed mRNA in the presence of chemical substance/The level of expressed mRNA in the absence of chemical substance (yeast gene YOR142W): 1.6
The level of expressed mRNA in the presence of chemical substance/The level of expressed mRNA in the absence of chemical substance (yeast gene YOR150W): 0.9
The level of expressed mRNA in the presence of chemical substance/The level of expressed mRNA in the absence of chemical substance (yeast gene YOR176W): 0.9
The level of expressed mRNA in the presence of chemical substance/The level of expressed mRNA in the absence of chemical substance (yeast gene YOR187W): 1.7
The level of expressed mRNA in the presence of chemical substance/The level of expressed mRNA in the absence of chemical substance (yeast gene YOR316C): 0.9
The level of expressed mRNA in the presence of chemical substance/The level of expressed mRNA in the absence of chemical substance (yeast gene YPL040C): 1.1
The level of expressed mRNA in the presence of chemical substance/The level of expressed mRNA in the absence of chemical substance (yeast gene YPL134C): 1.2
The level of expressed mRNA in the presence of chemical substance/The level of expressed mRNA in the absence of chemical substance (yeast gene YPL135W): 1.3
The level of expressed mRNA in the presence of chemical substance/The level of expressed mRNA in the absence of chemical substance (yeast gene YPL215W): 0.7
The level of expressed mRNA in the presence of chemical substance/The level of expressed mRNA in the absence of chemical substance (yeast gene YPL262W): 1.6
The level of expressed mRNA in the presence of chemical substance/The level of expressed mRNA in the absence of chemical substance (yeast gene YPR024W): 1.0
The level of expressed mRNA in the presence of chemical substance/The level of expressed mRNA in the absence of chemical substance (yeast gene YPR037C): 0.9
The level of expressed mRNA in the presence of chemical substance/The level of expressed mRNA in the absence of chemical substance (yeast gene YPR047W): 1.0
The level of expressed mRNA in the presence of chemical substance/The level of expressed mRNA in the absence of chemical substance (yeast gene YPR134W): 0.6
